{"source": "patent US20260327242A1", "about": "“Platform and Scaffold for FAP Targeting Agents” (Erasmus University Medical Center Rotterdam, priority 2022, published 2026)", "key": {"mouse FAP (mFAP)": {"molecular_target": "T1, mouse FAP (mFAP) (Mus musculus, UniProt P97321)", "T1 sequence (P97321 26-761 limits assumed)": "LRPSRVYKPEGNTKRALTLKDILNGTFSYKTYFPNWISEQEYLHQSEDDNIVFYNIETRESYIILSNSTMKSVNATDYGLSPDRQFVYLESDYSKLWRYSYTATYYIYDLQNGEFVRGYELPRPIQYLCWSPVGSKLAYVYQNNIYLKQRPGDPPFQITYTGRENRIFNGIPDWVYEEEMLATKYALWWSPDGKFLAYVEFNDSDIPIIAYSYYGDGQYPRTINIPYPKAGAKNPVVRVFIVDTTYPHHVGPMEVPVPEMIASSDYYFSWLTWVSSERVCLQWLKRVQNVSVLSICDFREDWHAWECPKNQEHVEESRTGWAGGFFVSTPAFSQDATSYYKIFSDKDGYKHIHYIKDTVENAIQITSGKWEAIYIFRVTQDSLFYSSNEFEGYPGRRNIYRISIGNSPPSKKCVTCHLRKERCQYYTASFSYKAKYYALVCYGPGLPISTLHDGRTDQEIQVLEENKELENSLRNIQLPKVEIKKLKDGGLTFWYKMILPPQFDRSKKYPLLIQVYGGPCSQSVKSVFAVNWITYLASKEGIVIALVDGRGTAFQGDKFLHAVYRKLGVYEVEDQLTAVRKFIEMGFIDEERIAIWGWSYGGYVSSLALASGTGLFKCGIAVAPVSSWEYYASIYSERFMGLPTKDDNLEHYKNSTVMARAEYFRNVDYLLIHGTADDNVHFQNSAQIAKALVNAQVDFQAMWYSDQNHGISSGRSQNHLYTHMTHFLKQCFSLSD", "test": "In vitro inhibition assay on mouse FAP (Z-GP-AMC substrate)", "assay_type": "biochemical", "settings": "20 μM Z-GP-AMC, 20 nM FAP, pH 7.4, room temperature", "description": "(§1) Enzymatic activity of human FAP (hFAP) and mouse FAP (mFAP) on the Z-GP-AMC substrate was measured at room temperature on a Hidex microplate reader by monitoring the fluorescence at an excitation wavelength of 360 nm and an emission wavelength of 465 nm. The reaction mixture contained 20 μM substrate, 20 nM FAP, assay buffer (50 mM Tris, 100 mM NaCl, 1 mM EDTA, pH 7.4) and tested compound (serial dilution from 10-6 to 10^−12) in a total volume of 50 μL.\nResults with FAPI-46 obtained in the same assay is included for comparison."}, "human FAP (hFAP)": {"molecular_target": "T2, human FAP (hFAP) (Homo sapiens, UniProt Q12884)", "T2 sequence (Q12884 26-760 limits assumed)": "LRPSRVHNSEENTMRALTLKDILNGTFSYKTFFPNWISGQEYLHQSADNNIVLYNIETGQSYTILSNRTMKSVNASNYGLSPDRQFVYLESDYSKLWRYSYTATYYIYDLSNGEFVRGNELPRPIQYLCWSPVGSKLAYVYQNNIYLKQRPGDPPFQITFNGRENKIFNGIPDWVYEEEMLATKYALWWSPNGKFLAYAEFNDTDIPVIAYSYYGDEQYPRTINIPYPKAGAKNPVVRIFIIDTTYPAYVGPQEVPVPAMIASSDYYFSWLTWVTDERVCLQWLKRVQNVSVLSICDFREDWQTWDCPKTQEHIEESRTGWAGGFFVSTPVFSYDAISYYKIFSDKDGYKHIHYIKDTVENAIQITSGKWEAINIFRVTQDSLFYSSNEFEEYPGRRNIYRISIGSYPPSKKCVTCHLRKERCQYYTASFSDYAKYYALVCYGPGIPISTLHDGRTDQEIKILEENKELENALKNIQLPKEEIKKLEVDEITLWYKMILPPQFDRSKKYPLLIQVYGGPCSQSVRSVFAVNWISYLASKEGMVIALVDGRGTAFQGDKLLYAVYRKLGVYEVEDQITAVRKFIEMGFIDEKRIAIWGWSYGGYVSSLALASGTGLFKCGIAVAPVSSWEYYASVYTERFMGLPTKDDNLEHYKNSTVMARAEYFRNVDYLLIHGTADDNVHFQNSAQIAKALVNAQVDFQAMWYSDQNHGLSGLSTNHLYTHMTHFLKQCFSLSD", "test": "In vitro inhibition assay on human FAP (Z-GP-AMC substrate)", "assay_type": "biochemical", "settings": "20 μM Z-GP-AMC, 20 nM FAP, pH 7.4, room temperature", "description": "as §1"}}}
{"molecule": "N#C[C@@H]1CC(F)(F)CN1C(=O)CNC(=O)c1ccnc2c(OCCCNC(=O)CCOCCOCCNc3nc(NCCCn4nnc5c4CC[C@H]4[C@@H](CC5)[C@H]4COC(=O)NCCNC(=O)CCC(C(=O)O)N4CCN(CC(=O)O)CCN(CC(=O)O)CCN(CC(=O)O)CC4)nc(NCCOCCOCCC(=O)NCCCOc4cccc5c(C(=O)NCC(=O)N6CC(F)(F)C[C@H]6C#N)ccnc45)n3)cccc12", "note": "(some centres unmarked) [eFAP-37]", "values": [{"measurement": "IC50", "setting": "mouse FAP (mFAP)", "value": "0.8 ± 0.1", "unit": "nM"}]}
{"molecule": "N#C[C@@H]1CC(F)(F)CN1C(=O)CNC(=O)c1ccnc2c(OCCCNC(=O)CN3CCC(NC(=O)CN4CCN(CC(=O)O)CCN(CC(=O)O)CCN(CC(=O)O)CC4)CC3)cccc12", "note": "[eFAP-10, (S)-2,2′,2″-(10-(2-((1-(2-((3-((4-((2-(2-Cyano-4,4-difluoropyrrolidin-1-yl)-2-oxoethyl)carbamoyl)quinolin-8-yl)oxy)propyl)amino)-2-oxoethyl)piperidin-4-yl)amino)-2-oxoethyl)-1,4,7,10-tetraazacyclododecane-1,4,7-triyl)triacetic acid]", "values": [{"measurement": "IC50", "setting": "mouse FAP (mFAP)", "value": "2.4 ± 0.7", "unit": "nM"}, {"measurement": "IC50", "setting": "human FAP (hFAP)", "value": "2.4 ± 0.7", "unit": "nM"}]}
{"molecule": "CC1(C)C(/C=C/C2=C(Oc3ccc(S(=O)(=O)O)cc3)C(=C/C=C3/N(CCCCCC(=O)NCC(O)CC(=O)NCCCOc4cccc5c(C(=O)NCC(=O)N6CC(F)(F)C[C@H]6C#N)ccnc45)c4ccc(S(=O)(=O)O)cc4C3(C)C)/CCC2)=[N+](CCCCS(=O)(=O)[O-])c2ccc(S(=O)(=O)O)cc21", "note": "(stereo partly drawn) [eFAP-27, 4-(2-((E)-2-((E)-3-(2-((E)-1-(6-((4-((3-((4-((2-((S)-2-cyano-4,4-difluoropyrrolidin-1-yl)-2-oxoethyl)carbamoyl)quinolin-8-yl)oxy)propyl)amino)-2-hydroxy-4-oxobutyl)amino)-6-oxohexyl)-3,3-dimethyl-5-sulfoindolin-2-ylidene)ethylidene)-2-(4-sulfophenoxy)cyclohex-1-en-1-yl)vinyl)-3,3-dimethyl-5-sulfo-3H-indol-1-ium-1-yl)butane-1-sulfonate]", "values": [{"measurement": "IC50", "setting": "mouse FAP (mFAP)", "value": "3.72 ± 0.11", "unit": "nM"}, {"measurement": "IC50", "setting": "human FAP (hFAP)", "value": "4.01 ± 0.28", "unit": "nM"}]}
{"molecule": "N#C[C@@H]1CC(F)(F)CN1C(=O)CNC(=O)c1ccnc2c(OCCCNC(=O)CCCCCSCC(=O)N3CN(C(=O)CSCCCCCC(=O)NCCCOc4cccc5c(C(=O)NCC(=O)N6CC(F)(F)C[C@H]6C#N)ccnc45)CN(C(=O)Cn4nnc5c4CC[C@@H]4[C@H](CC5)[C@@H]4COC(=O)NCCNC(=O)CCC(C(=O)O)N4CCN(CC(=O)O)CCN(CC(=O)O)CCN(CC(=O)O)CC4)C3)cccc12", "note": "(some centres unmarked) [eFAP-35]", "values": [{"measurement": "IC50", "setting": "human FAP (hFAP)", "value": 1.7, "unit": "nM"}]}
{"molecule": "N#C[C@@H]1CC(F)(F)CN1C(=O)CNC(=O)c1ccnc2c(OCCCNC(=O)CCC(C(=O)O)N3CCN(CC(=O)O)CCN(CC(=O)O)CCN(CC(=O)O)CC3)cccc12", "note": "(stereo partly drawn) [eFAP-8, 2,2′,2″-(10-(1-Carboxy-4-((3-((4-((2-((S)-2-cyano-4,4-difluoropyrrolidin-1-yl)-2-oxoethyl)carbamoyl)quinolin-8-yl)oxy)propyl)amino)-4-oxobutyl)-1,4,7,10-tetraazacyclododecane-1,4,7-triyl)triacetic acid]", "values": [{"measurement": "IC50", "setting": "mouse FAP (mFAP)", "value": "1.1 ± 0.4", "unit": "nM"}, {"measurement": "IC50", "setting": "human FAP (hFAP)", "value": "1.5 ± 0.2", "unit": "nM"}]}
{"molecule": "CN1/C(=C/C=C/C=C/C2=[N+](CCCCCC(=O)NCCCOc3cccc4c(C(=O)NCC(=O)N5CC(F)(F)C[C@H]5C#N)ccnc34)c3ccc(S(=O)(=O)[O-])cc3C2(C)C)C(C)(C)c2cc(S(=O)(=O)O)ccc21", "note": "[eFAP-7, 1-(6-((3-((4-((2-((S)-2-Cyano-4,4-difluoropyrrolidin-1-yl)-2-oxoethyl)carbamoyl)quinolin-8-yl)oxy)propyl)amino)-6-oxohexyl)-3,3-dimethyl-5-sulfo-2-((1E,3E)-5-((E)-1,3,3-trimethyl-5-sulfoindolin-2-ylidene)penta-1,3-dien-1-yl)-3H-indol-1-ium]", "values": [{"measurement": "IC50", "setting": "mouse FAP (mFAP)", "value": "2.5 ± 0.8", "unit": "nM"}]}
{"molecule": "N#C[C@@H]1CC(F)(F)CN1C(=O)CNC(=O)c1ccnc2c(OCCCNC(=O)CCOCCOCCNCC(=O)N3CN(C(=O)CNCCOCCOCCC(=O)NCCCOc4cccc5c(C(=O)NCC(=O)N6CC(F)(F)C[C@H]6C#N)ccnc45)CN(C(=O)Cn4nnc5c4CC[C@H]4[C@@H](CC5)[C@H]4COC(=O)NCCNC(=O)CCC(C(=O)O)N4CCN(CC(=O)O)CCN(CC(=O)O)CCN(CC(=O)O)CC4)C3)cccc12", "note": "(some centres unmarked) [eFAP-36]", "values": [{"measurement": "IC50", "setting": "human FAP (hFAP)", "value": 0.35, "unit": "nM"}]}
{"molecule": "N#C[C@@H]1CC(F)(F)CN1C(=O)CNC(=O)c1ccnc2c(OCCCNC(=O)C3CCC(CNC(=O)CN4CCN(CC(=O)O)CCN(CC(=O)O)CCN(CC(=O)O)CC4)CC3)cccc12", "note": "(stereo partly drawn) [eFAP-9, 2,2′,2″-(10-(2-(((4-((3-((4-((2-((S)-2-Cyano-4,4-difluoropyrrolidin-1-yl)-2-oxoethyl)carbamoyl)quinolin-8-yl)oxy)propyl)carbamoyl)cyclohexyl)methyl)amino)-2-oxoethyl)-1,4,7,10-tetraazacyclododecane-1,4,7-triyl)triacetic acid]", "values": [{"measurement": "IC50", "setting": "mouse FAP (mFAP)", "value": "2.3 ± 0.3", "unit": "nM"}, {"measurement": "IC50", "setting": "human FAP (hFAP)", "value": "2.9 ± 0.6", "unit": "nM"}]}
{"molecule": "N#C[C@@H]1CC(F)(F)CN1C(=O)CNC(=O)c1ccnc2c(OCCCNC(=O)COCC(=O)Nc3ccc(CNC(=O)CN4CCN(CC(=O)O)CCN(CC(=O)O)CCN(CC(=O)O)CC4)cc3)cccc12", "note": "[eFAP-11, (S)-2,2′,2″-(10-(2-((4-(2-(2-((3-((4-((2-(2-Cyano-4,4-difluoropyrrolidin-1-yl)-2-oxoethyl)carbamoyl)quinolin-8-yl)oxy)propyl)amino)-2-oxoethoxy)acetamido)benzyl)amino)-2-oxoethyl)-1,4,7,10-tetraazacyclododecane-1,4,7-triyl)triacetic acid]", "values": [{"measurement": "IC50", "setting": "mouse FAP (mFAP)", "value": "1.5 ± 0.2", "unit": "nM"}]}
{"molecule": "N#C[C@@H]1CC(F)(F)CN1C(=O)CNC(=O)c1ccnc2c(OCCCNC(=O)CN3CCN(CCNC(=O)CN4CCN(CC(=O)O)CCN(CC(=O)O)CCN(CC(=O)O)CC4)CC3)cccc12", "note": "[eFAP-13, (S)-2,2′,2″-(10-(2-((2-(4-(2-((3-((4-((2-(2-Cyano-4,4-difluoropyrrolidin-1-yl)-2-oxoethyl)carbamoyl)quinolin-8-yl)oxy)propyl)amino)-2-oxoethyl)piperazin-1-yl)ethyl)amino)-2-oxoethyl)-1,4,7,10-tetraazacyclododecane-1,4,7-triyl)triacetic acid]", "values": [{"measurement": "IC50", "setting": "mouse FAP (mFAP)", "value": "1.3 ± 0.6", "unit": "nM"}]}
{"molecule": "N#C[C@@H]1CC(F)(F)CN1C(=O)CNC(=O)c1ccnc2c(OCCCNC(=O)CN3CCN(C(=O)CN4CCN(CC(=O)O)CCN(CC(=O)O)CCN(CC(=O)O)CC4)CC3)cccc12", "note": "[eFAP-12, (S)-2,2′,2″-(10-(2-(4-(2-((3-((4-((2-(2-Cyano-4,4-difluoropyrrolidin-1-yl)-2-oxoethyl)carbamoyl)quinolin-8-yl)oxy)propyl)amino)-2-oxoethyl)piperazin-1-yl)-2-oxoethyl)-1,4,7,10-tetraazacyclododecane-1,4,7-triyl)triacetic acid]", "values": [{"measurement": "IC50", "setting": "mouse FAP (mFAP)", "value": "1.8 ± 0.2", "unit": "nM"}]}
{"molecule": "N#C[C@@H]1CC(F)(F)CN1C(=O)CNC(=O)c1ccnc2c(OCCCNC(=O)CCSCC(=O)N3CN(C(=O)CSCCC(=O)NCCCOc4cccc5c(C(=O)NCC(=O)N6CC(F)(F)C[C@H]6C#N)ccnc45)CN(C(=O)Cn4nnc5c4CC[C@H]4[C@@H](CC5)[C@H]4COC(=O)NCCNC(=O)CCC(C(=O)O)N4CCN(CC(=O)O)CCN(CC(=O)O)CCN(CC(=O)O)CC4)C3)cccc12", "note": "(some centres unmarked) [eFAP-34]", "values": [{"measurement": "IC50", "setting": "human FAP (hFAP)", "value": 1.8, "unit": "nM"}]}
{"molecule": "N#C[C@@H]1CC(F)(F)CN1C(=O)CNC(=O)c1ccnc2c(OCCCNC(=O)CC(O)CNC(=O)CC(O)CNC(=S)Nc3ccc4c(c3)C(=O)OC43c4ccc(O)cc4Oc4cc(O)ccc43)cccc12", "note": "(stereo partly drawn) [eFAP-23, N-(2-((S)-2-cyano-4,4-difluoropyrrolidin-1-yl)-2-oxoethyl)-8-(3-(4-(4-(3-(3′,6′-dihydroxy-3-oxo-3H-spiro[isobenzofuran-1,9′-xanthen]-5-yl)thioureido)-3-hydroxybutanamido)-3-hydroxybutanamido)propoxy)quinoline-4-carboxamide]", "values": [{"measurement": "IC50", "setting": "mouse FAP (mFAP)", "value": "2 ± 0.4", "unit": "nM"}]}
